Measured values: patent EP0335369A2, “New anthracycline derivatives and processes for the preparation of the same” (priority 1988, dated 1989)
≈ marks a conversion by molar mass, not a printed value. Where two headings read alike, the source gives them in different places.

What was measured:
[1] = system: Leukemia L-1210 cells; assay: Test 1: antitumor activity against leukemia induced in CDF1 mice by Leukemia L-1210 cells (life-span increase); type: in vivo; conditions: intraperitoneally once per day for 9 consecutive days, observation 60 days
Method: Antitumor activities against leukemia in CDF, mice as induced by mouse leukemia, Leukemia L-1210 cells
After an elapsed time of 24 hours, a compounds of the formula (I) of this invention to be tested was administered intraperitoneally for 9 consecutive days once per day. Observation was made for 60 days, where survival days of each mouse tested were recorded. In comparison with the control test wherein mice were treated with the administration of physiological saline alone, the increase (%) in the life-span of the treated mice was calculated as T/C %, where T is the mean survival days of the treated animals and C is the mean survival days of the untreated control animals. For the comparison, daunomycin and adriamycin were also tested in the same manner.

[2] = Solubility in phosphate buffer solution of pH 7.4 at room temperature; type: physicochemical; conditions: for solubility: aqueous buffer, room temperature, read-out: Solubility; for solubility in the phosphate buffer solution (in words): phosphate buffer solution (0.05 M KH2PO4-NaOH) at pH 7.4
[3] = system: Leukemia L-1210 cells; assay: Test 3: antitumor activity against leukemia induced in CDF1 mice by Leukemia L-1210 cells (procedure of Test 1 repeated); type: in vivo; conditions: for % Increase in life-span (T/C, %): intraperitoneally once per day for 9 consecutive days, observation 60 days
Method: Antitumor activities against leukemia in CDF1 mice as induced by mouse leukemia, Leukemia L-1210 cells
To evaluate the antitumor effects of the compounds of the formula (I') according to the sixth aspect of this invention against experimental tumors in animals, the procedure of Test 1 given hereinbefore is repeated. Thus, CDF1 mice were intraperitoneally transplanted with cells of Leukemia L-1210 (at a dose of 1 x 10^5 cells/mouse). After an elapsed time of 24 hours from the tumor transplantation, a test compound of the formula (I') of the sixth aspect invention to be evaluated was administered intraperitoneally for 9 consecutive days once per day. Observation was made for 60 day, where survival days of each mouse tested were recorded. In comparison with the control test wherein mice were treated with the administration of physiological saline alone, the increase (%) in the life-span of the treated mice was calculated as T/C %, where T is the mean survival days of the treated animals and C is the mean survival days of the untreated control animals. For the comparison, daunomycin and adriamycin were also tested in the same manner.

[4] = compounds (Ic), phosphate buffer solution of pH 7.4 (0.05 M KH2PO4-NaOH)
[5] = compounds (I'-c) or (I'-d), phosphate buffer solution of pH 7.4 (0.05M KH2PO4-NaOH)

SMILES | % Increase in life-span (T/C, %) ([1]; Dose 0.15 mg/kg/day) | % Increase in life-span (T/C, %) ([1]; Dose 0.3 mg/kg/day) | % Increase in life-span (T/C, %) ([1]; Dose 0.6 mg/kg/day) | % Increase in life-span (T/C, %) ([1]; Dose 1.25 mg/kg/day) | % Increase in life-span (T/C, %) ([1]; Dose 2.5 mg/kg/day) | % Increase in life-span (T/C, %) ([1]; Dose 5 mg/kg/day) | % Increase in life-span (T/C, %) ([3]; Dose 0.3 mg/kg/day) | % Increase in life-span (T/C, %) ([3]; Dose 0.6 mg/kg/day) | % Increase in life-span (T/C, %) ([3]; Dose 1.25 mg/kg/day) | % Increase in life-span (T/C, %) ([3]; Dose 2.5 mg/kg/day) | % Increase in life-span (T/C, %) ([3]; Dose 5 mg/kg/day) | other results
C[C@@H]1O[C@@H](O[C@H]2C[C@](O)(C(=O)CO)Cc3c(O)c4c(c(O)c32)C(=O)c2ccccc2C4=O)[C@H](F)[C@H](O)[C@H]1O [Example 4, 7-O-(2,6-dideoxy-2-fluoro-a-L-mannopyranosyl)-4-demethoxyadriamycinone] | >534% | >686% | >686% | 141% | 53% | 22% |  |  |  |  |  | 
COc1cccc2c1C(=O)c1c(O)c3c(c(O)c1C2=O)C[C@@](O)(C(=O)COC(=O)CCC(=O)O)C[C@@H]3O[C@@H]1O[C@@H](C)[C@H](O)[C@@H](O)[C@H]1F [Example 6, 7-O-(2,6-dideoxy-2-fluoro-α-L-mannopyranosyl)adriamycinone 14-0-hemisuccinate] |  |  |  |  |  |  |  |  |  |  |  | solubility [2, 4]: 25 mg/mL (≈ 37.7 mM)
COc1cccc2c1C(=O)c1c(O)c3c(c(O)c1C2=O)C[C@@](O)(C(=O)COC(=O)CCCCCCC(=O)O)C[C@@H]3O[C@@H]1O[C@@H](C)[C@H](O)[C@@H](O)[C@H]1F [Example 10, 7-O-(2,6-dideoxy-2-fluoro-α-L-mannopyranosyl)adriamycinone 14-0-hemisuberate] |  |  |  |  |  |  |  |  |  |  |  | solubility [2, 4]: 30 mg/mL (≈ 41.7 mM)
CC(=O)[C@]1(O)Cc2c(O)c3c(c(O)c2[C@@H](O[C@@H]2O[C@@H](C)[C@H](O)[C@@H](O)[C@H]2F)C1)C(=O)c1ccccc1C3=O [Example 2, 4-demethoxy-7-O-(2,6-dideoxy-2-fluoro-α-L-mannopyranosyl)daunomycinone] | 113% | 163% | 309% | > 686% | 134% | 73% |  |  |  |  |  | 
COc1cccc2c1C(=O)c1c(O)c3c(c(O)c1C2=O)C[C@@](O)(C(=O)COC(=O)CCCC(=O)O)C[C@@H]3O[C@@H]1O[C@@H](C)[C@H](O)[C@@H](O)[C@H]1F [Example 7, 7-0-(2,6-dideoxy-2-fluoro-a-L-. mannopyranosyl)adriamycinone 14-0-hemiglutarate] |  |  |  |  |  |  |  |  |  |  |  | solubility [2, 4]: 28 mg/mL (≈ 41.4 mM)
COc1cccc2c1C(=O)c1c(O)c3c(c(O)c1C2=O)C[C@@](O)(C(C)=O)C[C@@H]3O[C@H]1C[C@H](N)[C@H](O)[C@H](C)O1 [Daunomycin, reference compound] | 130% | 133% | 166% | 193% | 151% | 117% | 133% | 166% | 193% | 151% | 117% | % Increase in life-span (T/C, %) ([3]; Dose 0.15 mg/kg/day): 130%
C[C@@H]1O[C@@H](O[C@H]2C[C@](O)(C(=O)COC(=O)CCCCCC(=O)O)Cc3c(O)c4c(c(O)c32)C(=O)c2ccccc2C4=O)[C@H](F)[C@H](O)[C@@H]1O [Example 18, 4-demethoxy-7-O-(2,6-dideoxy-2-fluoro-a-L-talopyranosyl)adriamycinone 14-0-hemipimelate] |  |  |  |  |  |  |  |  |  |  |  | solubility [2, 5]: < 1 mg/mL; solubility in the phosphate buffer solution (in words) [2]: scarcely soluble
CC(=O)[C@]1(O)Cc2c(O)c3c(c(O)c2[C@@H](O[C@@H]2O[C@@H](C)[C@@H](O)[C@@H](O)[C@H]2F)C1)C(=O)c1ccccc1C3=O [Example 12, 4-demethoxy-7-O-(2,6-dideoxy-2-fluoro-α-L-talopyranosyl)daunomycinone] |  |  |  |  |  |  | 138% | 202% | > 436% | 101% | 80% | % Increase in life-span (T/C, %) ([3]; Dose 0.15 mg/kg/day): 106%
COc1cccc2c1C(=O)c1c(O)c3c(c(O)c1C2=O)C[C@@](O)(C(C)=O)C[C@@H]3O[C@@H]1O[C@@H](C)[C@@H](O)[C@@H](O)[C@H]1F [7-0-(2,6-Dideoxy-2-fluoro-α-L-talopyranosyl) daunomycinone, reference compound] | 105% | 105% | 118% | 171% | 217% | 184% | 105% | 118% | 171% | 217% | 184% | % Increase in life-span (T/C, %) ([3]; Dose 0.15 mg/kg/day): 105%
CCCCC(=O)OCC(=O)[C@]1(O)Cc2c(O)c3c(c(O)c2[C@@H](O[C@@H]2O[C@@H](C)[C@@H](O)[C@@H](O)[C@H]2F)C1)C(=O)c1ccccc1C3=O [Example 14, 4-demothoxy-7-O-(2,6-dideoxy-2-fluoro-α-L-talopyranosyl)adriamycinone 14-0-valerate] |  |  |  |  |  |  |  |  |  |  |  | solubility [2, 5]: < 1 mg/mL
COc1cccc2c1C(=O)c1c(O)c3c(c(O)c1C2=O)C[C@@](O)(C(=O)CO)C[C@@H]3O[C@H]1C[C@H](N)[C@H](O)[C@H](C)O1 [Adriamycin, reference compound] | 123% | 136% | 142% | 222% | 228% | 191% | 136% | 142% | 222% | 228% | 191% | % Increase in life-span (T/C, %) ([3]; Dose 0.15 mg/kg/day): 123%
C[C@@H]1O[C@@H](O[C@H]2C[C@](O)(C(=O)COC(=O)CCCC(=O)O)Cc3c(O)c4c(c(O)c32)C(=O)c2ccccc2C4=O)[C@H](F)[C@H](O)[C@@H]1O [Example 16, 4-demethoxy-7-O-(2,6-dideoxy-2-fluoro-α-L-talopyranosyl)adriamycinone 14-0-hemiglutarate] |  |  |  |  |  |  |  |  |  |  |  | solubility [2, 5]: 10 mg/mL (≈ 15.5 mM); solubility in the phosphate buffer solution (in words) [2]: soluble
COc1cccc2c1C(=O)c1c(O)c3c(c(O)c1C2=O)C[C@@](O)(C(=O)COC(=O)CCCCC(=O)O)C[C@@H]3O[C@@H]1O[C@@H](C)[C@H](O)[C@@H](O)[C@H]1F [Example 8, 7-0-(2,6-dideoxy-2-fluoro-a-L-mannopyranosyl)adriamycinone 14-0-hemiadipate] |  |  |  |  |  |  |  |  |  |  |  | solubility [2, 4]: 32 mg/mL (≈ 46.3 mM)
COc1cccc2c1C(=O)c1c(O)c3c(c(O)c1C2=O)C[C@@](O)(C(=O)CO)C[C@@H]3O[C@@H]1O[C@@H](C)[C@H](O)[C@@H](O)[C@H]1F [Example 3, 7-O-(2,6-dideoxy-2-fluoro-a-L-mannopyranosyl)adriamycinone] | 157% | >440% | >363% | >426% | 231% | 211% |  |  |  |  |  | 
COc1cccc2c1C(=O)c1c(O)c3c(c(O)c1C2=O)C[C@@](O)(C(=O)CO)C[C@@H]3O[C@@H]1O[C@@H](C)[C@@H](O)[C@@H](O)[C@H]1F [7-0-(2,6-Dideoxy-2-fluoro-α-L-talopyranosyl) adriamycinone, reference compound] | 127% | 182% | 185% | 275% | >350% | >750% | 182% | 185% | 275% | >350% | >750% | % Increase in life-span (T/C, %) ([3]; Dose 0.15 mg/kg/day): 127%
C[C@@H]1O[C@@H](O[C@H]2C[C@](O)(C(=O)CO)Cc3c(O)c4c(c(O)c32)C(=O)c2ccccc2C4=O)[C@H](F)[C@H](O)[C@@H]1O [Example 13, 4-demethoxy-7-O-(2,6-dideoxy-2-fluoro-a-L-talopyranosyl)adriamycinone] |  |  |  |  |  |  | >348% | >427% | 96% | 80% | 77% | complete cure of the leukemia in the mice ([3]; intraperitoneally, 0.15 mg/kg/day): three mice were completely cured among the treated four mice
COc1cccc2c1C(=O)c1c(O)c3c(c(O)c1C2=O)C[C@@](O)(C(C)=O)C[C@@H]3O[C@@H]1O[C@@H](C)[C@H](O)[C@@H](O)[C@H]1F [Example 1, 7-0-(2,6-dideoxy-2-fluoro-a-L-mannopyranosyl)daunomycinone] | 109% | 123% | 189% | >309% | 280% | 160% |  |  |  |  |  | 
